Experimental data: patent US11382956B2, “Amylin analogues” (Zealand Pharma A/S, priority 2016, dated 2022)
Numbered stars: 1 amine (or outer) side, 2 acyl side, 3 side chain; on linkers, the order of the positions; unused ones are H or OH. Bridge positions count the residues as written; N and C are the ends. Square brackets hold non-standard residues; d marks the D form. Peptide text beside a SMILES is read from it. * marks the point of attachment. C20 diacid = O=C(O)CCCCCCCCCCCCCCCCCCC(=O)*; γGlu = O=C(O)[C@H](CCC(=O)[*:2])N[*:1]; Hyp = O=C(O)[C@@H]1C[C@@H](O)CN1; NMeI = CC[C@H](C)[C@H](NC)C(=O)O; Aad = N[C@@H](CCCC(=O)O)C(=O)O; Sar = CNCC(=O)O

How the values were obtained:
[1] = target: T1, recombinant human calcitonin receptor (hCT-R) (Homo sapiens, UniProt P30988); assay: hCT-R cAMP assay (AlphaScreen) in 1321N1 cells; type: cell-based; conditions: cAMP formation, 45 min stimulation
T1 construct: host or cells: human astrocytoma cell line 1321N1
T1 sequence (P30988 25-474): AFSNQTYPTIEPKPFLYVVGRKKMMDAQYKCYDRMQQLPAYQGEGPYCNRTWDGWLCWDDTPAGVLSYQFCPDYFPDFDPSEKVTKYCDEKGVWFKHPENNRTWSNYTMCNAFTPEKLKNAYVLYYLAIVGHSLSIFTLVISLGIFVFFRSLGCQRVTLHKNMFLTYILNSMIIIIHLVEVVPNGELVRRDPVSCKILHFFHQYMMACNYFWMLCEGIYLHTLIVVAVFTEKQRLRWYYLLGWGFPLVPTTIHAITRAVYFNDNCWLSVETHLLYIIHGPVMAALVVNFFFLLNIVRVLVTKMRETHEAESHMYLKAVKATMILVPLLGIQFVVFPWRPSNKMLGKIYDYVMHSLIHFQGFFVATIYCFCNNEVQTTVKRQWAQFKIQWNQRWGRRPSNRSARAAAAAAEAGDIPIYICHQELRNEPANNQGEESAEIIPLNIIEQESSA
In short: (§1)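 1321N1 astrocytoma cells expressing recombinant human calcitonin receptor alone or with RAMP3 (AMY3) stimulated 45 min at room temperature with peptide in IBMX-containing buffer. cAMP quantified by AlphaScreen after 1 h bead incubation; EC50 fitted from at least 7 concentrations.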

[2] = target: T2, recombinant human amylin 3 receptor (hAMYR3) (Homo sapiens, UniProt O60896+P30988); assay: hAMYR3 cAMP assay (AlphaScreen) in 1321N1 cells; type: cell-based; conditions: cAMP formation, 45 min stimulation
T2 construct: host or cells: human astrocytoma cell line 1321N1
T2 sequence (P30988 25-474): T1 sequence (P30988 25-474)
T2 sequence (O60896 24-148 partner): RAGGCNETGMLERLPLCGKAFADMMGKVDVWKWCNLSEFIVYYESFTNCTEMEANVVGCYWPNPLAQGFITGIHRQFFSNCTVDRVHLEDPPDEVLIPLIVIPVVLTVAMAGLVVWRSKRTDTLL
In short: as §1

[3] = Assessment of physical stability: fibril formation by Thioflavin T fluorescence; type: physicochemical; design: key: FND = fibrillation not detected; FD = fibrillation detected; conditions: 1 mg/mL peptide; for Fibrillation (in buffer) pH4 acetate: 50 mM acetate buffer pH 4.0, 96 hours at 40° C.; for Fibrillation (in buffer) pH7 histidine: 50 mM histidine buffer pH 7.0, 96 hours at 40° C.; for Fibrillation (in buffer) pH7 phosphate: 50 mM phosphate buffer pH 7.0, 96 hours at 40° C.
In short: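 Test peptide at 1 mg/mL with 40 μM ThT in 50 mM phosphate pH 7.0, 50 mM histidine pH 7.0, or 50 mM acetate pH 4.0, in triplicate. Fluorescence read every 10 min after 300 s agitation for 96 hours at 40° C; significant intensity rise scored as fibrillation detected (FD).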

[4] = Assessment of chemical stability in 40 mM buffers at 40° C. (RP-HPLC); type: physicochemical; conditions: 1 mg/mL; for % degradation after 14 days at 40° C. pH6 phosphate: phosphate buffer pH 6, 14 days
In short: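 Peptides at 1 mg/mL in 40 mM acetate pH 4 or phosphate pH 6 and 7 were held at 40° C for 3 and 14 days. Main-peak area-% by C8 RP-HPLC, UV 220 nm; % degradation = change in main-peak area-% versus t=0.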

[5] = Effect on acute food intake and body weight in normal Sprague Dawley rats; type: in vivo, Sprague Dawley (SD) rats; conditions: Dose: 30 nmol/kg sc, vehicle-corrected
Excerpt: Sprague Dawley (SD) rats were obtained from Janvier Labs, France. The animals arrived at least 14 days before the study start to allow acclimatization to experimental conditions. From arrival and throughout the study, the rats were housed in groups of 2 to 4 (n=2-4) in a light-, temperature- and humidity-controlled room. Animals had access ad libitum to food (KLIBA 3430, Provimi Kliba AG, Switzerland) and water (domestic quality tap water) during the entire study. Per group 6-8 rats were included. A vehicle group and positive control group were included in each set of tests. […] Dosing volume was 2 ml/kg. Food intake was recorded online using an automated food intake system (HM02, MBRose, Denmark) for 4 days or manually at 0 h for a predose and then 24, 48, 72 and 96 h post dosing. Body weight was measured daily.
Statistical analyses were performed using GraphPad™ Prism version 7. The measured parameters were compared using two-way ANOVA followed by Dunnett's multiple comparison tests. Differences were considered statistically significant at p<0.05.

Compound | EC50 [1] | EC50 [2] | Fibrillation (in buffer) pH4 acetate [3] | Fibrillation (in buffer) pH7 histidine [3] | Fibrillation (in buffer) pH7 phosphate [3] | % degradation after 72 h at 40° C. pH4 acetate ([4]; acetate buffer pH 4, 72 h) | % degradation after 72 h at 40° C. pH6 phosphate ([4]; phosphate buffer pH 6, 72 h) | % degradation after 72 h at 40° C. pH7 phosphate ([4]; phosphate buffer pH 7, 72 h) | Body weight reduction in % at 48 h [5] | Food intake reduction in % at 48 h [5] | % degradation after 14 days at 40° C. pH6 phosphate [4] | % degradation after 14 days at 40° C. pH4 acetate ([4]; acetate buffer pH 4, 14 days) | % degradation after 14 days at 40° C. pH7 phosphate ([4]; phosphate buffer pH 7, 14 days)
CC[C@H](C)[C@@H](C(=O)N1CCC[C@H]1C(=O)N[C@@H](CO)C(=O)N[C@@H](CO)C(=O)N[C@H](C(=O)N[C@@H](CCC(=O)O)C(=O)N[C@H](C(=O)NCC(=O)N[C@@H](CO)C(=O)N[C@@H](CC(N)=O)C(=O)N[C@H](C(=O)N1C[C@H](O)C[C@H]1C(N)=O)[C@@H](C)O)C(C)C)[C@@H](C)O)N(C)C(=O)[C@H](C)NC(=O)CN(C)C(=O)[C@H](Cc1ccccc1)NC(=O)[C@H](CO)NC(=O)[C@H](CO)NC(=O)[C@H](CCCNC(=N)N)NC(=O)[C@H](CCC(N)=O)NC(=O)[C@H](CC(C)C)NC(=O)[C@H](Cc1ccccc1)NC(=O)[C@H](Cc1c[nH]cn1)NC(=O)[C@H](C)NC(=O)[C@H](CC(C)C)NC(=O)[C@H](CCCNC(=N)N)NC(=O)[C@H](CCC(N)=O)NC(=O)[C@@H](NC(=O)[C@H](C)NC(=O)[C@@H]1CCCCNC(=O)C[C@H](NC(=O)[C@H](CCCNC(=N)N)NC(=O)CC[C@H](NC(=O)CCCCCCCCCCCCCCCCCCC(=O)O)C(=O)O)C(=O)NCC(=O)N[C@@H]([C@@H](C)O)C(=O)N[C@@H](C)C(=O)N[C@@H]([C@@H](C)O)C(=O)N1)[C@@H](C)O [Compound 15, [19CD]-isoGlu-RD()GTATK()ATQRLAHFLQRSSF-Gly(Me)-A-Ile(Me)-PSSTEVGSNT-Hyp-NH2] ({C20 diacid-γGlu}-RDGTATKATQRLAHFLQRSSF[Sar]A[NMeI]PSSTEVGSNT[Hyp]-NH2; lactam 2-7) | 0.056 nM | 0.017 nM | FND | FD | FD | <1% | <1% | <1% | 7.7% | 71% | – | – | –
CC[C@H](C)[C@@H](C(=O)N[C@@H](CC(C)C)C(=O)N[C@@H](CO)C(=O)N[C@@H](CO)C(=O)N[C@H](C(=O)N[C@@H](CCC(=O)O)C(=O)N[C@H](C(=O)NCC(=O)N[C@@H](CO)C(=O)N[C@@H](CC(N)=O)C(=O)N[C@H](C(=O)N1C[C@H](O)C[C@H]1C(N)=O)[C@@H](C)O)C(C)C)[C@@H](C)O)N(C)C(=O)[C@H](C)NC(=O)CN(C)C(=O)[C@H](Cc1ccccc1)NC(=O)[C@H](CO)NC(=O)[C@H](CO)NC(=O)[C@H](CCCNC(=N)N)NC(=O)[C@H](CCC(N)=O)NC(=O)[C@H](CC(C)C)NC(=O)[C@H](Cc1ccccc1)NC(=O)[C@H](Cc1c[nH]cn1)NC(=O)[C@H](C)NC(=O)[C@H](CC(C)C)NC(=O)[C@H](CCCNC(=N)N)NC(=O)[C@H](CCC(N)=O)NC(=O)[C@@H](NC(=O)[C@H](C)NC(=O)[C@@H]1CCCCNC(=O)C[C@H](NC(=O)[C@H](CCCNC(=N)N)NC(=O)CC[C@H](NC(=O)CCCCCCCCCCCCCCCCCCC(=O)O)C(=O)O)C(=O)NCC(=O)N[C@@H]([C@@H](C)O)C(=O)N[C@@H](C)C(=O)N[C@@H]([C@@H](C)O)C(=O)N1)[C@@H](C)O [Compound 16, [19CD]-isoGlu-RD()GTATK()ATQRLAHFLQRSSF-Gly(Me)-A-Ile(Me)-LSSTEVGSNT-Hyp-NH2] ({C20 diacid-γGlu}-RDGTATKATQRLAHFLQRSSF[Sar]A[NMeI]LSSTEVGSNT[Hyp]-NH2; lactam 2-7) | 0.043 nM | 0.035 nM | – | – | – | – | – | – | 7.4% | 66% | <1% | – | –
CC[C@H](C)[C@@H](C(=O)N1CCC[C@H]1C(=O)N[C@@H](CO)C(=O)N[C@@H](CO)C(=O)N[C@H](C(=O)N[C@@H](CCC(=O)O)C(=O)N[C@H](C(=O)NCC(=O)N[C@@H](CO)C(=O)N[C@@H](CC(N)=O)C(=O)N[C@H](C(=O)N1C[C@H](O)C[C@H]1C(N)=O)[C@@H](C)O)C(C)C)[C@@H](C)O)N(C)C(=O)[C@H](C)NC(=O)CN(C)C(=O)[C@H](Cc1ccccc1)NC(=O)[C@H](CO)NC(=O)[C@H](CO)NC(=O)[C@H](CCCNC(=N)N)NC(=O)[C@H](CCC(N)=O)NC(=O)[C@H](CC(C)C)NC(=O)[C@H](Cc1ccccc1)NC(=O)[C@H](CCCC(=O)O)NC(=O)[C@H](C)NC(=O)[C@H](CC(C)C)NC(=O)[C@H](CCCNC(=N)N)NC(=O)[C@H](CCC(=O)O)NC(=O)[C@@H](NC(=O)[C@H](C)NC(=O)[C@@H]1CCCCNC(=O)C[C@H](NC(=O)[C@H](CCC(=O)O)NC(=O)CC[C@H](NC(=O)CCCCCCCCCCCCCCCCCCC(=O)O)C(=O)O)C(=O)NCC(=O)N[C@@H]([C@@H](C)O)C(=O)N[C@@H](C)C(=O)N[C@@H]([C@@H](C)O)C(=O)N1)[C@@H](C)O [Compound 30, [19CD]-isoGlu-ED()GTATK()ATERLA-Aad-FLQRSSF-Gly(Me)-A-Ile(Me)-PSSTEVGSNT-Hyp-NH2] ({C20 diacid-γGlu}-EDGTATKATERLA[Aad]FLQRSSF[Sar]A[NMeI]PSSTEVGSNT[Hyp]-NH2; lactam 2-7) | 0.232 nM | 0.122 nM | FD | FND | FND | – | – | – | 0% | <20% | – | – | –
CC[C@H](C)[C@@H](C(=O)N[C@@H](CC(C)C)C(=O)N[C@@H](CO)C(=O)N[C@@H](CO)C(=O)N[C@H](C(=O)N[C@@H](CCC(=O)O)C(=O)N[C@H](C(=O)NCC(=O)N[C@@H](CO)C(=O)N[C@@H](CC(N)=O)C(=O)N[C@H](C(=O)N1C[C@H](O)C[C@H]1C(N)=O)[C@@H](C)O)C(C)C)[C@@H](C)O)N(C)C(=O)[C@H](C)NC(=O)CN(C)C(=O)[C@H](Cc1ccccc1)NC(=O)[C@H](CO)NC(=O)[C@H](CO)NC(=O)[C@H](CCCNC(=N)N)NC(=O)[C@H](CCC(N)=O)NC(=O)[C@H](CC(C)C)NC(=O)[C@H](Cc1ccccc1)NC(=O)[C@H](CC(=O)O)NC(=O)[C@H](C)NC(=O)[C@H](CC(C)C)NC(=O)[C@H](CCCNC(=N)N)NC(=O)[C@H](CCC(N)=O)NC(=O)[C@@H](NC(=O)[C@H](C)NC(=O)[C@@H]1CSSC[C@H](NC(=O)[C@H](CCCNC(=N)N)NC(=O)CC[C@H](NC(=O)CCCCCCCCCCCCCCCCCCC(=O)O)C(=O)O)C(=O)N[C@@H](CC(N)=O)C(=O)N[C@@H]([C@@H](C)O)C(=O)N[C@@H](C)C(=O)N[C@@H]([C@@H](C)O)C(=O)N1)[C@@H](C)O [Ref. 5, [19CD]-isoGlu-RC()NTATC()ATQRLADFLQRSSF-Sar-A-Ile(Me)-LSSTEVGSNT-Hyp-NH2, reference compound] ({C20 diacid-γGlu}-RCNTATCATQRLADFLQRSSF[Sar]A[NMeI]LSSTEVGSNT[Hyp]-NH2; disulfide 2-7) | 0.063 nM | 0.028 nM | FD | FND | FND | – | – | – | – | – | 5.1% | 3.0% | 12.7%
